Assay results: patent US4555572A, “Pyrazolo[3,4,5-kl]acridine compositions and methods for their production and use” (Warner-Lambert Company, priority 1984, dated 1985)
In brackets after ≈: the same amount, converted by molar mass. Structures can show the parent of a compound that is named as a salt. Where two headings read alike, the source gives them in different places.

Columns and labels:
[1] = system: L1210 cells; assay: PDC test, L1210 cell growth; format: cell-based, murine; conditions: Mus musculus, read-out: PDC ID50
Method: (c) Another test protocol is the PDC test. L1210 cells, a murine leukemia cell line, were grown in RPMI 1640 supplemented with 10% fetal bovine serum and genamicin (50 μg/ml). Drug dilutions were prepared in the appropriate solvent and 20 μl of each dilution were added to 24-well Linbro tissue culture plates followed by the addition of 2.0 ml of cell suspension containing 3×10^4 cells per ml. Solvent and medium controls were included in each test. After incubation at 37° C. for three days in 5% CO2 in air, the contents of each well were removed and the cells counted in a ZBI Coulter counter. Per cent growth was calculated relative to the controls and the levels of drug activity were expressed as ID50 in terms of molarity (M).

[2] = system: Branhamella catarrhalis; assay: in vitro antibacterial (ABMF) microdilution susceptibility test; format: cell-based; conditions: Moraxella catarrhalis, read-out: ABMF Test M.I.C. B. cata.
Excerpt: (§1) (d) Still another test protocol is the in vitro antibacterial (ABMF) test which is a recognized standard microdilution susceptibility procedure in Mueller-Hinton broth against gram-positive and gram-negative bacterial test organisms. The procedure is a modification of a state-of-the-art procedure reported in Manual of Clinical Microbiology, Lennette, E. H., ed., by Barry, A. L. and C. Thornsberry at pages 463-474 and by Gavan, T. L. and A. L. Barry at pages 459-462, American Society for Microbiology, Washington, 1980.
(§2) In the test, a given bacterial culture is used to inoculate individaul test wells of microdilution trays containing growth medium and test compound, the latter in a microdilution series: 1000, 333, 111, 37, 12, 4, 1.4, and 0.46 micrograms per milliliter. […] For convenience, values are reported for Escherichia coli, Branhamella catarrhalis, Alcaligenes viscolactis, Streptococcus pneumoniae, and Bacillus cereus

[3] = system: Escherichia coli; assay: as above; format: cell-based; conditions: read-out: ABMF Test M.I.C. E. coli
Excerpt: as §1, §2

[4] = system: Streptococcus pneumoniae; assay: as above; format: cell-based; conditions: read-out: ABMF Test M.I.C. S. pneu.
Excerpt: as §1, §2

[5] = system: Bacillus cereus; assay: as above; format: cell-based; conditions: read-out: ABMF Test M.I.C. B. cere.
Excerpt: as §1, §2

[6] = system: Alcaligenes viscolactis; assay: as above; format: cell-based; conditions: read-out: ABMF Test M.I.C. A. visc.
Excerpt: as §1, §2

[7] = system: lymphocytic leukemia P388; assay: in vivo lymphocytic leukemia P388 test; parameters: species or system CD2 F1 mice; conditions: Mus musculus, P388, ip, 120 h, intraperitoneally once daily for five days, read-out: P388 in vivo T/C × 100
Method: Another test protocol is the in vivo lymphocytic leukemia P388 test. The animals used are either male or female CD2 F1 mice, six or seven animals per test group. The tumor transplant is by intraperitoneal injection of dilute ascitic fluid containing cells of lymphocytic leukemia P388. The test compounds are administered intraperitoneally once daily for five consecutive days at various doses following tumor inoculation. The animals are weighed and survivors are recorded on a regular basis for 30 days. A compound is designated "toxic" if, at a given dose, all animals died prior to four days after the first injection of drug. A ratio of survival time for treated (T)/control (C) animals is calculated. A criterion for efficacy is a ratio T/C times 100 greater than or equal to 125. See Cancer Chemotherapy Reports, Part 3, 3, 1 (1972) for a comprehensive discussion of the protocol.

[8] = system: HCT-8 cells; assay: in vitro proliferating human colon adenocarcinoma (HCA) cell screen, HCT-8; format: cell-based; conditions: HCT-8 cells, 60 to 65 hours, ED50, read-out: HCA ED50 Avg.
Method: (a) One test protocol is the in vitro proliferating human colon adenocarcinoma (HCA) cell screen. In this test, HCT-8 cells (HCA cell line received from Yale University) are trypsinized using trypsin-EDTA. A single cell suspension is achieved by passing the cells through a 26 gauge needle with a 20-cc syringe. A cell suspension is prepared using RPMI 1640+10% FCS+50 μg/ml gentamicin sulfate with a cell concentration is approximately 30,000 cells/ml. The cell suspension is dispensed in Linbro 24-well plates; 1 ml/well. The plates are incubated for approximately 48 hours at 37° C. in a 5% CO2 atmosphere. At this time test compounds are added in the appropriate concentration. Five μl of the 200 μg/ml stock solution is added to each well in a primary test. […] of the appropriate dilution is added to each well for a titration test. The plates are reincubated an additional 60 to 65 hours at 37° C. in a 5% CO 2 atmosphere. The cells are lysed using a mix of cationic surfactant, glacial acetic acid, and sodium chloride. Two ml of the lysed cell suspension from each well is added to 8 ml of diluent. The number of nuclei is determined using a Coulter counter (ZBI model), and a percent growth for each drug concentration is calculated. From this, and ID50 (molar concentration of compound that results in 50% inhibition of growth) is determined.

[9] = Mueller-Hinton broth, 37° C., 16-24 hours

| IC50 ([1]; 72 h, L1210 cells, three days) [nM] | Structure (SMILES) | MIC [2, 9] [µg/mL] | MIC [3, 9] [µg/mL] | MIC [4, 9] [µg/mL] | MIC [5, 9] [µg/mL] | MIC [6, 9] [µg/mL] | IC50 ([1]; L1210, 72 h) [nM] | response vs control in vivo at 3.12 mg/kg [7] [%] | IC50 [8] [nM] | other results |
| --- | --- | --- | --- | --- | --- | --- | --- | --- | --- | --- |
| 3 | CCN(CC)CCn1nc2c3c(c([N+](=O)[O-])ccc31)Nc1ccc(OC(=O)c3ccccc3)cc1-2 [Example 31, 2-[2-(Diethylamino)ethyl]-2,6-dihydro-5-nitropyrazolo [3,4,5-kl]acridin-9-ol, benzoate (ester), methanesulfonate (1:1) (salt), monohydrate] | – | – | – | – | – | – | – | – | – |
| – | CCN(CC)CCn1nc2c3c(c([N+](=O)[O-])cc([N+](=O)[O-])c31)Nc1ccc(OCc3ccc(OC)cc3)cc1-2.CS(=O)(=O)O [Example 53, N,N-Diethyl-9-[(4-methoxyphenyl)methoxy]-3,5-dinitropyrazolo[3,4,5-kl]acridine-2(6H)-ethanamine, methanesulfonate (1:1)] | – | – | – | – | – | 6.8 | – | – | MIC [2]: < 0.46 µg/mL; MIC [3]: < 0.46 µg/mL; MIC [4]: < 0.46 µg/mL; MIC [5]: < 0.46 µg/mL; MIC [6]: < 0.46 µg/mL |
| 460 | CCN(CC)CCOc1ccc2c(c1)-c1nn(CCN(CC)CC)c3ccc([N+](=O)[O-])c(c13)N2 [Example 21] | 12.3 (≈ 26.4 µM) | 111 (≈ 238 µM) | 12.3 (≈ 26.4 µM) | 37 (≈ 79.3 µM) | 4.1 (≈ 8.79 µM) | – | – | – | – |
| – | CCN(CC)CCn1nc2c3c(c([N+](=O)[O-])cc([N+](=O)[O-])c31)Nc1ccc(O)cc1-2 [Example 49, 2-[2-(Diethylamino)ethyl]-2,6-dihydro-3,5-dinitropyrazolo[3,4,5-kl]acridin-9-ol, methanesulfonate, hemihydrate] | – | – | – | – | – | 6.8 | – | – | MIC [2]: < 0.46 µg/mL; MIC [3]: < 0.46 µg/mL; MIC [4]: < 0.46 µg/mL; MIC [5]: < 0.46 µg/mL; MIC [6]: < 0.46 µg/mL |
| – | CCN(CC)CCn1nc2c3c(c([N+](=O)[O-])cc([N+](=O)[O-])c31)Nc1ccc(OCc3ccccc3)cc1-2 [Example 52, N,N-Diethyl-3,5-dinitro-9-(phenylmethoxy)pyrazolo [3,4,5-kl]-2(6H)-ethanamine, methanesulfonate, hemihydrate] | – | – | – | – | – | 750 | – | – | – |
| 7.2 | CCN(CC)CCn1nc2c3c(c([N+](=O)[O-])ccc31)Nc1ccc(OC(=O)C(C)(C)C)cc1-2 [Example 28, 2-[2-(Diethylamino)ethyl]-2,6-dihydro-5-nitropyrazolo[3,4,5-kl]acridin-9-ol, 2,2-dimethylpropanoate (ester), methanesulfonate (salt) (1:1)] | – | – | – | – | – | – | 221 | – | response vs control in vivo at 6.25 mg/kg [7]: 223% |
| – | CCOc1ccc2c(c1)-c1nn(CCN(CC)CC)c3c([N+](=O)[O-])cc([N+](=O)[O-])c(c13)N2.CS(=O)(=O)O.O [Example 51, 9-Ethoxy-N,N-diethyl-3,5-dinitropyrazolo[3,4,5-kl]acridine-2(6H)-ethanamine, methanesulfonate, hydrate] | – | – | – | – | – | 380 | – | – | MIC [2]: 333 µg/mL; MIC [3]: > 1000 µg/mL; MIC [4]: 111 µg/mL; MIC [5]: 333 µg/mL; MIC [6]: < 0.46 µg/mL |
| – | CN(C)CCCn1nc2c3c(c([N+](=O)[O-])ccc31)Nc1ccc(O)cc1-2 [Example 44, 2-[3-(Dimethylamino)propyl]-2,6-dihydro-5-nitropyrazolo[3,4,5-kl]acridin-9-ol, methanesulfonate] | < 0.46 | < 0.46 | 0.46 | 0.46 | < 0.46 | – | 270 | 12 | response vs control in vivo at 0.39 mg/kg ([7]; 0.39 mg/kg): 162%; response vs control in vivo at 0.78 mg/kg ([7]; 0.78 mg/kg): 182%; response vs control in vivo at 1.56 mg/kg [7]: 200% |
| – | CCOc1ccc2c(c1)-c1nn(CCCN(C)C)c3ccc([N+](=O)[O-])c(c13)N2.CS(=O)(=O)O [Example 46, 9-Ethoxy-N,N-dimethyl-5-nitropyrazolo[3,4,5-kl]acridine-2(6H)-propanamine, methanesulfonate (1:1)] | 1.4 | 12.3 | 4.1 | 4.1 | < 0.46 | – | 137 | 55 | response vs control in vivo at 1.56 mg/kg [7]: 132%; response vs control in vivo at 6.25 mg/kg [7]: 169%; response vs control in vivo at 12.5 mg/kg ([7]; 12.5 mg/kg): 232% |
| – | COc1cc(OC)c2c(c1)-c1nn(CCN(C)C)c3ccc([N+](=O)[O-])c(c13)N2.CS(=O)(=O)O [Example 38, 7,9-Dimethoxy-N,N-dimethyl-5-nitropyrazolo[3,4,5-kl]acridine-2(6H)-ethanamine, methanesulfonate (1:1)] | 1.4 | 1000 | < 0.46 | < 0.46 | < 0.46 | – | – | 64 | response vs control in vivo at 100 mg/kg ([7]; 100 mg/kg): 119%; response vs control in vivo at 200 mg/kg ([7]; 200 mg/kg): 128% |
| 820 | CCN(CC)CCn1nc2c3c(c([N+](=O)[O-])ccc31)Nc1ccc(OCc3ccc(OC)cc3)cc1-2 [Example 22, N,N-Diethyl-9-[(4-methoxyphenyl)methoxy]-5-nitropyrazolo[3,4,5-kl]acridine-2(6H)-ethanamine, methanesulfonate (salt) (1:1)] | – | – | – | – | – | – | – | – | – |
| – | CCN(CC)CCn1nc2c3c(c([N+](=O)[O-])ccc31)Nc1ccc(OC(C)=O)cc1-2 [Example 27, 2-[2-(Diethylamino)ethyl]-2,6-dihydro-5-nitropyrazolo[3,4,5-kl]acridin-9-ol, acetate (ester), methanesulfonate (salt) (1:1)] | 0.46 | 12.3 | 1.4 | 4.1 | 0.46 | – | 218 | 5.3 | response vs control in vivo at 1.56 mg/kg [7]: 158%; response vs control in vivo at 6.25 mg/kg [7]: 165% |

| Structure (SMILES) | IC50 ([1]; 72 h, L1210 cells, three days) [nM] | MIC [2, 9] [µg/mL] | MIC [3, 9] [µg/mL] | MIC [4, 9] [µg/mL] | MIC [5, 9] [µg/mL] | MIC [6, 9] [µg/mL] | IC50 ([1]; L1210, 72 h) [nM] | response vs control in vivo at 3.12 mg/kg [7] [%] | IC50 [8] [nM] | other results |
| --- | --- | --- | --- | --- | --- | --- | --- | --- | --- | --- |
| CCN(CC)CCn1nc2c3c(c([N+](=O)[O-])ccc31)Nc1cc(OC)cc(OC)c1-2.CS(=O)(=O)O.O [Example 24, N,N-Diethyl-8,10-dimethoxy-5-nitropyrazolo[3,4,5-kl]acridine-2(6H)-ethanamine, methanesulfonate, hydrate (1:1:1)] | 490 | < 0.46 | 4.1 | 1.4 | < 0.46 | < 0.46 | – | – | – | – |
